Measured values taken from patent publication US20180118718A1, “Substituted Quinoxaline Derivatives” (Selvita S.A., priority 2015, published 2018).
Where a name gives a salt, the structure may show the parent alone.

Biological target: T1, Human recombinant His-tagged PFKFB3 (Homo sapiens, UniProt Q16875)
T1 construct: His; made in house
Assay: PFKFB3 IC50 Determination Assay (in vitro kinase assay, modified ADP-Glo system)
Type: biochemical
Conditions: ATP 20 μM and fructose-6-phosphate 2 μM (Km), 25 nM PFKFB3, 2 h, rt, ADP-Glo luminescence
Method: PFKFB3 IC50 Determination Assay
In vitro kinase assay used to determine IC50 values for tested inhibitors is based on a modified ADP-Glo™ system (Promega) and consists of two parts:
1. Kinase reaction—performed in optimized conditions. At this step PFKFB3 phosphorylates its substrate Fructose-6-phosphate using ATP as a source of phosphate to produce Fructose-2,6-bisphosphate and ADP. Reaction is performed at Km values for ATP and substrate using optimized buffer composition and time of the reaction. Human recombinant His-tagged PFKFB3 (PFKFB3 BATCH II SEC) with confirmed activity is produced and purified in-house. 2. Detection of ADP as a product of the reaction using ADP-Glo™ system. This part is conducted by using the commercially available kit ADP-Glo™ Kinase Assay (Promega, cat. No# V9103) according to manufacturer's instruction, modified by 5x dilutions of assay reagents (both ADP-Glo™ Reagent and Kinase Detection Solution).
Test compounds are dissolved in DMSO and then transferred to the V-bottom 96-well plate.
15 μL per well of Mix 1 is transferred to assay wells of 96-well white plate. […] Total reaction volume is 30 μL per well. Samples are tested in duplicates. Final concentration of DMSO in the reaction is 6.7%. Conditions needed for performing PFKFB3 (PFKFB3 BATCH II SEC) in vitro kinase assay are given below:
This protocol is based on Technical Bulletin, ADP-Glo™ Kinase Assay (Promega) and is adapted to 96-well plate containing 30 μL reaction mixture:
30 μL of 5x diluted ADP-Glo™ Reagent is added to each well of 96-well plate containing 30 μL of reaction mixture. The plate is incubated for 90 minutes on a shaker at RT. 60 μL of 5x diluted Kinase Detection Solution is added to each well of 96-well plate containing 60 μL of the solution (ratio of kinase reaction volume to ADP-Glo™ Reagent volume to Kinase Detection Solution volume is maintained at 1:1:2). Plate is incubated for 40 minutes on a shaker at RT, protected from light. Luminescence is measured in the plate reader Synergy 2 (BioTek).
Luminescent readouts for compounds tested in 10 concentrations (routinely from 100 μM to […], […] serial dilutions) in duplicates, as well as for positive control, are first normalized to no-substrate negative control by its subtraction. In the next step, % of normalized positive control is calculated for each data point and plotted against test compound concentration:
% of control percent of positive control normalized to no-substrate negative control Lumcpd luminescence of test compound Lumneg luminescence of no-substrate negative control Lumpos luminescence of positive control
IC50 parameter is determined by the GraphPad Prism 5.0 software [log(inhibitor) vs. response −Variable slope (four parameters)].

T1 sequence (Q16875 whole entry): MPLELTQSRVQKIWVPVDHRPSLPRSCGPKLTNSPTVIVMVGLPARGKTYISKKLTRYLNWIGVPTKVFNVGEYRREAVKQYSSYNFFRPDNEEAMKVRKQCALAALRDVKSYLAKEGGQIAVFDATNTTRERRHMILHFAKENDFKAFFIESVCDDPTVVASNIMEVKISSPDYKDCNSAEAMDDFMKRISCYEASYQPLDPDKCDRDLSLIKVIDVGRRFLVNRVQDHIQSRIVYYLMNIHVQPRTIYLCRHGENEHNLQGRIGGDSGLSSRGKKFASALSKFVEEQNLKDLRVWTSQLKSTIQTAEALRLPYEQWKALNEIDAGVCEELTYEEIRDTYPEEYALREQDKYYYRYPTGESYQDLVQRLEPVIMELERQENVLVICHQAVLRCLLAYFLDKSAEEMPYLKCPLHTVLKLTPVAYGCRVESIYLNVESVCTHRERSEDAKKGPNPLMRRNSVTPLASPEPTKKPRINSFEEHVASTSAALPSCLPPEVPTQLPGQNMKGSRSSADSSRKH

IC50 [nM]	SMILES
1000 to 10000	Cn1ccc2ccc(-c3cc(Nc4ccccc4S(=O)(=O)N4CCNCC4)cc4nccnc34)cc21 [Example 15, 8-(1-Methyl-1H-indol-6-yl)-N-[2-(piperazine-1-sulfonyl)phenyl]quinoxalin-6-amine trifluoroacetate]
10000 to 100000	Cc1ccc(C(N)=O)c(-c2cc(Nc3cnccc3S(C)(=O)=O)cc3nccnc23)c1 [Example 128, 2-{7-[(4-methanesulfonylpyridin-3-yl)amino]quinoxalin-5-yl}-4-methylbenzamide]
1000 to 10000	Cc1ccc(N)c(-c2cc(Nc3cnccc3S(C)(=O)=O)cc3nccnc23)c1 [Example 66, 8-(2-Amino-5-methylphenyl)-N-(4-methanesulfonylpyridin-3-yl)quinoxalin-6-amine]
1 to 1000	CN1CCOC(CNC(=O)c2ccncc2Nc2cc(-c3ccc4ccn(C)c4c3)c3nccnc3c2)C1 (stereo not shown) [Example 137, 3-{[8-(1-methyl-1H-indol-6-yl)quinoxalin-6-yl]amino}-N-[(4-methylmorpholin-2-yl)methyl]pyridine-4-carboxamide]
1 to 1000	Cn1ccc2ccc(-c3cc(Nc4cnccc4C(=O)NCc4cccnn4)cc4nccnc34)cc21 [Example 144, 3-{[8-(1-Methyl-1H-indol-6-yl)quinoxalin-6-yl]amino}-N-[(pyridazin-3-yl)methyl]pyridine-4-carboxamide]
10000 to 100000	Cn1ccc2ccc(-c3cc(Oc4cnccc4C(=O)O)cc4nccnc34)cc21 [Example 198, 3-{[8-(1-methyl-1H-indol-6-yl)quinoxalin-6-yl]oxy}pyridine-4-carboxylic acid]
1 to 1000	CN1CCC(NC(=O)c2ccncc2Nc2cc(-c3ccc(Br)cc3)c3nccnc3c2)C1 (stereo not shown) [Example 215, 3-{[8-(4-Bromophenyl)quinoxalin-6-yl]amino}-N-(1-methylpyrrolidin-3-yl)pyridine-4-carboxamide]
1000 to 10000	Cn1ccc2ccc(-c3cc(Nc4c[n+]([O-])ccc4C#N)cc4nccnc34)cc21 [Example 90, 4-Cyano-3-{[8-(1-methyl-1H-indol-6-yl)quinoxalin-6-yl]amino}pyridin-1-ium-1-olate]
1000 to 10000	COc1ccc(C)cc1-c1cc(Nc2cnccc2S(C)(=O)=O)cc2nccnc12 [Example 74, N-(4-Methanesulfonylpyridin-3-yl)-8-(2-methoxy-5-methylphenyl)quinoxalin-6-amine]
1 to 1000	Cn1ccc2ccc(-c3cc(Nc4cc(-c5nn[nH]n5)ccc4S(C)(=O)=O)cc4nccnc34)cc21 [Example 43, N-[2-Methanesulfonyl-5-(2H-1,2,3,4-tetrazol-5-yl)phenyl]-8-(1-methyl-1H-indol-6-yl)quinoxalin-6-amine]
1 to 1000	CC(=O)N1CCOCC1CNC(=O)c1ccncc1Nc1cc(-c2ccc3ccn(C)c3c2)c2nccnc2c1 (stereo not shown) [Example 136, N-[(4-acetylmorpholin-3-yl)methyl]-3-{[8-(1-methyl-1H-indol-6-yl)quinoxalin-6-yl]amino}pyridine-4-carboxamide]
1 to 1000	Cn1ccc2cc(F)c(-c3cc(Nc4cnccc4S(C)(=O)=O)cc4nccnc34)cc21 [Example 73, 8-(5-Fluoro-1-methyl-1H-indol-6-yl)-N-(4-methanesulfonylpyridin-3-yl)quinoxalin-6-amine]

More lines, now with the values behind:

SMILES	IC50 [nM]
Cn1nccc1-c1ccc(S(C)(=O)=O)c(Nc2cc(-c3ccc4ccn(C)c4c3)c3nccnc3c2)c1 [Example 93, N-[2-Methanesulfonyl-5-(1-methyl-1H-pyrazol-5-yl)phenyl]-8-(1-methyl-1H-indol-6-yl)quinoxalin-6-amine]	1000 to 10000
CS(=O)(=O)c1ccncc1Nc1cc(-c2ccc3n[nH]nc3c2)c2nccnc2c1 [Example 118, 8-(1H-1,2,3-Benzotriazol-5-yl)-N-(4-methanesulfonylpyridin-3-yl)quinoxalin-6-amine]	1000 to 10000
CN1CCN(c2ccc(S(C)(=O)=O)c(Nc3cc(-c4ccc5ccn(C)c5c4)c4nccnc4c3)c2)CC1 [Example 45, N-[2-Methanesulfonyl-5-(4-methylpiperazin-1-yl)phenyl]-8-(1-methyl-1H-indol-6-yl)quinoxalin-6-amine]	1000 to 10000
COc1ccc(C)c(-c2cc(Nc3cnccc3S(C)(=O)=O)cc3nccnc23)c1 [Example 153, N-(4-Methanesulfonylpyridin-3-yl)-8-(5-methoxy-2-methylphenyl)quinoxalin-6-amine]	1000 to 10000
Cc1csc2ccc(-c3cc(Nc4ccccc4S(C)(=O)=O)cc4nccnc34)cc12 [Example 191, N-(2-Methanesulfonylphenyl)-8-(3-methyl-1-benzothiophen-5-yl)quinoxalin-6-amine]	1 to 1000
Cn1ccc2ccc(-c3cc(Nc4cnccc4C(=O)Oc4ccnc(N)n4)cc4nccnc34)cc21 [Example 160, 2-Aminopyrimidin-4-yl3-{[8-(1-methyl-1H-indol-6-yl)quinoxalin-6-yl]amino}pyridine-4-carboxylate]	1 to 1000
CC(=O)N1CC(NC(=O)c2ccncc2Nc2cc(-c3ccc4scc(C)c4c3)c3nccnc3c2)C1 [Example 206, N-(1-Acetylazetidin-3-yl)-3-{[8-(3-methyl-1-benzothiophen-5-yl)quinoxalin-6-yl]amino}pyridine-4-carboxamide]	1 to 1000
Cn1cncc1CNC(=O)c1ccncc1Nc1cc(-c2ccc3ccn(C)c3c2)c2nccnc2c1 [Example 143, N-[(1-methyl-1H-imidazol-5-yl)methyl]-3-{[8-(1-methyl-1H-indol-6-yl)quinoxalin-6-yl]amino}pyridine-4-carboxamide]	1 to 1000
CC(=O)N1CCN(c2ccc(S(C)(=O)=O)c(Nc3cc(-c4ccc5ccn(C)c5c4)c4nccnc4c3)c2)CC1 [Example 46, 1-[4-(4-Methanesulfonyl-3-{[8-(1-methyl-1H-indol-6-yl)quinoxalin-6-yl]amino}phenyl)piperazin-1-yl]ethan-1-one]	1000 to 10000
Cn1ccc2ccc(-c3cc(Oc4cnccc4C#N)cc4nccnc34)cc21 [Example 47, 3-{[8-(1-Methyl-1H-indol-6-yl)quinoxalin-6-yl]oxy}pyridine-4-carbonitrile]	1 to 1000
Cc1ccc(-c2cc(Nc3cnccc3S(C)(=O)=O)cc3nccnc23)cc1N [Example 75, 8-(3-Amino-4-methylphenyl)-N-(4-methanesulfonylpyridin-3-yl)quinoxalin-6-amine]	1 to 1000
Cn1ccc2ccc(-c3cc(Nc4ccccc4S(=O)(=O)NC4CCCOC4)cc4nccnc34)cc21 (stereo not shown) [Example 209, 2-{[8-(1-Methyl-1H-indol-6-yl)quinoxalin-6-yl]amino}-N-(oxan-3-yl)benzene-1-sulfonamide]	1 to 1000
Cn1cnc(-c2ccncc2Nc2cc(-c3ccc4ccn(C)c4c3)c3nccnc3c2)c1 [Example 83, N-[4-(1-Methyl-1H-imidazol-4-yl)pyridin-3-yl]-8-(1-methyl-1H-indol-6-yl)quinoxalin-6-amine]	1 to 1000
Cn1ccc2ccc(-c3cc(Nc4cccnc4N)cc4nccnc34)cc21 [Example 17, 3-N-[8-(1-methyl-1H-indol-6-yl)quinoxalin-6-yl]pyridine-2,3-diamine]	1000 to 10000
CS(=O)(=O)c1ccncc1Nc1cc(-c2ccc(N)c(F)c2)c2nccnc2c1 [Example 186, 8-(4-Amino-3-fluorophenyl)-N-(4-methanesulfonylpyridin-3-yl)quinoxalin-6-amine]	1 to 1000
Cn1ccc2ccc(-c3cc(Nc4cc([N+](=O)[O-])ccc4S(C)(=O)=O)cc4nccnc34)cc21 [Example 35, N-(2-Methanesulfonyl-5-nitrophenyl)-8-(1-methylindol-6-yl)quinoxalin-6-amine]	1 to 1000
CNc1ccc(S(C)(=O)=O)c(Nc2cc(-c3ccc4ccn(C)c4c3)c3nccnc3c2)c1 [Example 57, 4-Methanesulfonyl-N1-methyl-N3-[8-(1-methyl-1H-indol-6-yl)quinoxalin-6-yl]benzene-1,3-diamine]	1 to 1000
CN(C)Cc1ccncc1Nc1cc(-c2ccc3ccn(C)c3c2)c2nccnc2c1 [Example 175, N-{4-[(dimethylamino)methyl]pyridin-3-yl}-8-(1-methyl-1H-indol-6-yl)quinoxalin-6-amine]	1 to 1000
Cn1ccc2ccc(-c3cc(Nc4cc(-n5ccnc5)ccc4S(C)(=O)=O)cc4nccnc34)cc21 [Example 42, N-[5-(1H-Imidazol-1-yl)-2-methanesulfonylphenyl]-8-(1-methyl-1H-indol-6-yl)quinoxalin-6-amine]	1 to 1000
